Data: patent US10624968B2, “Compounds for treating cancer” (Bicycle Therapeutics Limited, priority 2017, dated 2020)
Starred links: 1 amine or outer side, 2 acyl side, 3 side chain; linkers in the order of their positions; H or OH if unused. Positions of bridges follow the written chain, without caps; N, C: chain ends. Non-standard residues stand in square brackets, D forms with d. Residues, ends and D or L forms follow the SMILES beside them. ξ: configuration not given here. *: point of attachment. X4 = COc1cc2cc(c1Cl)N(C)C(=O)C[C@H](OC(=O)[C@H](C)N(C)C(=O)CCN(C)*)[C@]1(C)O[C@H]1[C@H](C)[C@@H]1C[C@@](O)(NC(=O)O1)[C@H](OC)/C=C/C=C(\C)C2; 1Nal = N[C@@H](Cc1cccc2ccccc12)C(=O)O; TBMB = c1c(C[*:1])cc(C[*:3])cc1C[*:2]; PABC = O=C(OCc1ccc(N[*:1])cc1)[*:2]; Glutaryl = O=C(CCCC(=O)[*:2])[*:1]; ξ1Nal = NC(Cc1cccc2ccccc12)C(=O)O; Cit = NC(=O)NCCC[C@H](N)C(=O)O; Tle = CC(C)(C)[C@H](N)C(=O)O; ξY = NC(Cc1ccc(O)cc1)C(=O)O; ξTle = CC(C)(C)C(N)C(=O)O; ξF = NC(Cc1ccccc1)C(=O)O; ξE = NC(CCC(=O)O)C(=O)O; ξD = NC(CC(=O)O)C(=O)O; ξN = NC(=O)CC(N)C(=O)O; ξC = NC(CS)C(=O)O; βAla = NCCC(=O)O; ξA = CC(N)C(=O)O; Sar = CNCC(=O)O

Experiments:
[1] = Mortality, morbidity and body weight in HT1080 xenograft study (Example 13); type: in vivo, mouse
Method: (§1) All the procedures related to animal handling, care and the treatment in the study were performed following the guidance of the Association for Assessment and Accreditation of Laboratory Animal Care (AAALAC). At the time of routine monitoring, the animals were daily checked for any effects of tumor growth and treatments on normal behavior such as mobility, food and water consumption (by looking only), body weight gain/loss (body weights were measured every day), eye/hair matting and any other abnormal effect as stated in the protocol. Death and observed clinical signs were recorded on the basis of the numbers of animals within each subset.
Body weight was monitored regularly as an indirect measure of toxicity.

MMP24 = MMP24 (Homo sapiens, UniProt Q9Y5R2); assay: Binding to related MMP family members
Sequence of MMP24 (Q9Y5R2 156-645, species assumed): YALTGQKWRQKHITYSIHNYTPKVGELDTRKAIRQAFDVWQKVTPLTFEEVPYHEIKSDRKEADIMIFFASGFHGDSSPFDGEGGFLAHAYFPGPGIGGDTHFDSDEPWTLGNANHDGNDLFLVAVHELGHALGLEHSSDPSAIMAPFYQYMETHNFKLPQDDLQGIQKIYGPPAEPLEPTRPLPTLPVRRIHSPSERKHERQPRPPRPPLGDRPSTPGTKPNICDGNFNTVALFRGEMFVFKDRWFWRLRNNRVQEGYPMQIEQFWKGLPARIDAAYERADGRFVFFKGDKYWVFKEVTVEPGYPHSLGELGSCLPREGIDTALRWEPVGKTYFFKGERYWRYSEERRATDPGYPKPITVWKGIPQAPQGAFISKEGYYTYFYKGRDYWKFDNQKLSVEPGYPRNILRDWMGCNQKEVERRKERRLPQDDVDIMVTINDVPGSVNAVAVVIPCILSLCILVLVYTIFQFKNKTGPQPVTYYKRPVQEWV

MMP16 = MMP16 (Homo sapiens, UniProt P51512); assay: Binding to related MMP family members
Sequence of MMP16 (P51512 120-607, species assumed): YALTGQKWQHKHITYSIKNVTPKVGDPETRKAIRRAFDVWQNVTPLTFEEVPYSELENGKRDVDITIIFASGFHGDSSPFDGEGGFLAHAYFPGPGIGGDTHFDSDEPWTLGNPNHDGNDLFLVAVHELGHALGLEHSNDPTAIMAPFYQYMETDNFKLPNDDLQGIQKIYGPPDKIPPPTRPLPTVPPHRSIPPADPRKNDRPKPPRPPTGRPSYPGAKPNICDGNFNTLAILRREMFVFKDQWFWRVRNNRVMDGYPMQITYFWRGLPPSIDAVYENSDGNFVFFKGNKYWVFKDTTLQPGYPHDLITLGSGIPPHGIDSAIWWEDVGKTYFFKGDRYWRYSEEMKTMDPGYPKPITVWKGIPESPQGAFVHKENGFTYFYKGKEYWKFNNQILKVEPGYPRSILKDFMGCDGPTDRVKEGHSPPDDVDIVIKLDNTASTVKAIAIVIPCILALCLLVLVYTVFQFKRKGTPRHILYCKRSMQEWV

[2] = test system: cell migration or invasion; assay: Effect on cell migration or invasion; type: cell-based
catalytic domain of MT1 = assay: Bicycle peptide binding to catalytic domain
MMP2 [3] = molecular target: T1, MMP2 (Homo sapiens, UniProt P08253); assay: Binding to related MMP family members
T1 sequence (P08253 110-660, species assumed): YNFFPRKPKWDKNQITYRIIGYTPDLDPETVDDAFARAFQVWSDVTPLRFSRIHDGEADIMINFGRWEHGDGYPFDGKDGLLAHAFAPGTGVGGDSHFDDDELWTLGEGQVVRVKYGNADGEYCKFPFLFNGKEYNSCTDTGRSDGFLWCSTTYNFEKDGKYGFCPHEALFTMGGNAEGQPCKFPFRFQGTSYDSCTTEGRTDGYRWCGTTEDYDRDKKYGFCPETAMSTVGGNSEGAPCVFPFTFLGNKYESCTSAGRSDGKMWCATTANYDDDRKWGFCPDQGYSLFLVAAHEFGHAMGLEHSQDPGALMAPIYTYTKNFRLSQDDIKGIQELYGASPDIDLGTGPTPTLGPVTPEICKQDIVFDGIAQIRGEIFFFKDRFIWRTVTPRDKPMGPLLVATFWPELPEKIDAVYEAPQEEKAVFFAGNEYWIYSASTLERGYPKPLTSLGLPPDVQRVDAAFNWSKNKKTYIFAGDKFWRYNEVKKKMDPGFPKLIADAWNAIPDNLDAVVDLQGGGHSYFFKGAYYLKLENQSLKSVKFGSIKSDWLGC

MMP15 = MMP15 (Homo sapiens, UniProt P51511); assay: Binding to related MMP family members
Sequence of MMP15 (P51511 132-669, species assumed): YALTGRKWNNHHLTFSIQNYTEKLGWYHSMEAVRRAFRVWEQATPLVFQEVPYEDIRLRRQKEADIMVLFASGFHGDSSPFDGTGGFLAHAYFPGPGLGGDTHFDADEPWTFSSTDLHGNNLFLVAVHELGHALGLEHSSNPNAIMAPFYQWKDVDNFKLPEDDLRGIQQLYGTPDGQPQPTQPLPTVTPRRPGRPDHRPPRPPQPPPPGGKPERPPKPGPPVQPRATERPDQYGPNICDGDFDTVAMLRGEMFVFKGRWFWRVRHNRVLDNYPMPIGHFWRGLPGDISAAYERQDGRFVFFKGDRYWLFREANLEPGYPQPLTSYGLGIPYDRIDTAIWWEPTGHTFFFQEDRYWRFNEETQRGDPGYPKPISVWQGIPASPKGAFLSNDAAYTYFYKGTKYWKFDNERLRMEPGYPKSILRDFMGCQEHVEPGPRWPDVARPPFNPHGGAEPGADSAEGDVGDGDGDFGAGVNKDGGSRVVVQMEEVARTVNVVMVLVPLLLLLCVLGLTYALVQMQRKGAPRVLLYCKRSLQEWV

MMP1 [4] = molecular target: T2, MMP1 (Homo sapiens, UniProt P03956); assay: Effect on related MMP catalytic activity; type: biochemical
T2 sequence (P03956 100-469, species assumed): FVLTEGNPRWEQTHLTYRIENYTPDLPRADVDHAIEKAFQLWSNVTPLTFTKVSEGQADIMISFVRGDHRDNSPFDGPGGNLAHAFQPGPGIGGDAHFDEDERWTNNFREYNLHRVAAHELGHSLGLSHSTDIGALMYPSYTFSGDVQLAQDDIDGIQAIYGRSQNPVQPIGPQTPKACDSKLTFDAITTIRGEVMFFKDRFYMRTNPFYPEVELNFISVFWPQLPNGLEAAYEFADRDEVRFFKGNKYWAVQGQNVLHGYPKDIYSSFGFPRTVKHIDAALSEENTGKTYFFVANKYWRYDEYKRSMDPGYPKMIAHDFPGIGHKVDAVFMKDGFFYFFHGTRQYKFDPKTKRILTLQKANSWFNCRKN

MT1 = MT1 (Homo sapiens, UniProt P50281); assay: Effect on catalytic activity of the protease in vitro; type: biochemical
MMP9 = MMP9 (Homo sapiens, UniProt P14780); assay: Effect on related MMP catalytic activity; type: biochemical
Sequence of MMP9 (P14780 94-707, species assumed): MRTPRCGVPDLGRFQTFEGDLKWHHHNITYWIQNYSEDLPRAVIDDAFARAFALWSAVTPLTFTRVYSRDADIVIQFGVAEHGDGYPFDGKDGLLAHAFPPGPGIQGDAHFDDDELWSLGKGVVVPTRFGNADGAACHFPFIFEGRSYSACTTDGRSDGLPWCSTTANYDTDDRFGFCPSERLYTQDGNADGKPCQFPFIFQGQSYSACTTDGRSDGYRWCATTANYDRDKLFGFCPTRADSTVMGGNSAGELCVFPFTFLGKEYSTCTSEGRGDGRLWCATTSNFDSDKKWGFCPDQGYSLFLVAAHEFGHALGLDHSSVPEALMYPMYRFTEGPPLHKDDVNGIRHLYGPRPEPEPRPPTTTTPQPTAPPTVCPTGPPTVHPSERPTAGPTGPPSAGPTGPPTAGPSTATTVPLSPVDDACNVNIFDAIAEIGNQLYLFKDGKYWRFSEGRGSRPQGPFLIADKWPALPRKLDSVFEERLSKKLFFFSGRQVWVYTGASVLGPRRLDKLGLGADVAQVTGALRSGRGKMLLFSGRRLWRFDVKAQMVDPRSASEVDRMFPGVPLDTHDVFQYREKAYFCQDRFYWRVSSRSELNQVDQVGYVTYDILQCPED

MMP2 [5] = molecular target: T1, MMP2; assay: Effect on related MMP catalytic activity; type: biochemical
Pro-MMP1 = molecular target: T3, Pro-MMP1 (Homo sapiens, UniProt P03956); assay: Binding to related MMP family members
T3 construct: (MMP15, MMP16, MMP24, MMP1, Pro-MMP1, MMP2)
T3 sequence (P03956 20-469 limits assumed): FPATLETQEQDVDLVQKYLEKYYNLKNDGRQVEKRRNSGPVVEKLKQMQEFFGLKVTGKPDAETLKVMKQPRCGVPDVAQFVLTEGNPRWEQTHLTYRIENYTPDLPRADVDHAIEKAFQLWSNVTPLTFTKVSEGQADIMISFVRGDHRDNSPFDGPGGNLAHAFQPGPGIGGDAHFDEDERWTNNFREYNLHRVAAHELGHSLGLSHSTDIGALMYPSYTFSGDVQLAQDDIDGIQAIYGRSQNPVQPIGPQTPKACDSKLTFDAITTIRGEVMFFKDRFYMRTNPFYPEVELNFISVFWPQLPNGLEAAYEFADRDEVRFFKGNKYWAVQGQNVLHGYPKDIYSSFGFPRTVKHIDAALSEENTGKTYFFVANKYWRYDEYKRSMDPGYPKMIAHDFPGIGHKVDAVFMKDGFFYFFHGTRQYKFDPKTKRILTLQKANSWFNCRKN

MMP1 [6] = molecular target: T2, MMP1; assay: Binding to related MMP family members
hemopexin domain of MT1 = hemopexin domain of MT1 (Homo sapiens, UniProt P50281); assay: Bicycle peptide binding to hemopexin domain of MT1; details: read-out: apparent Kd
LU-01-0486 PDX = assay: Efficacy in MT1-MMP low-expressing LU-01-0486 NSCLC PDX model; type: in vivo, mouse; details: dose not given
Method: The objective of this study was to evaluate the in vivo anti-tumor efficacy of I-1a in the treatment of MT1-MMP low-expressing LU-01-0486 PDX model in female Balb/C nude mice
Each mouse was inoculated subcutaneously at the right flank with LU-01-0486 of tumor fragment (30 mm^3) for tumor development. The treatments was started when the average tumor volume reaches 164 mm^3.
The major endpoint was to see if the tumor growth could be delayed or mice could be cured. Tumor size was measured two times weekly in two dimensions using a caliper, and the volume was expressed in mm^3 using the formula: V=0.5 a×b^2 where a and b are the long and short diameters of the tumor, respectively. […]
TGI was calculated for each group using the formula: TGI (%)=[1−(Ti−T0)/(Vi−V0)]×100; Ti is the average tumor volume of a treatment group on a given day, T0 is the average tumor volume of the treatment group on the day of treatment start, Vi is the average tumor volume of the vehicle control group on the same day with Ti, and V0 is the average tumor volume of the vehicle group on the day of treatment start.
A one-way ANOVA was performed to compare tumor volume among groups, and when a significant F-statistics (a ratio of treatment variance to the error variance) was obtained, comparisons between groups were carried out with Games-Howell test. All data were analyzed using Prism. […]

[7] = Tolerability (body weight) in LU-01-0486 NSCLC PDX model; type: in vivo, mouse; details: dose not given; humane sacrifice of animals at day 24
Method: as §1, with “twice weekly),” for “every day),”

[8] = test system: MT1-positive tumor xenografts; details: mouse, in vivo, iv
MT1-MMP = MT1-MMP (Homo sapiens, UniProt P50281); assay: MT1-MMP fluorescent polarization competition; type: binding; details: up to 20 μM

In the case of `COc1cc2cc(c1Cl)N(C)C(=O)C[C@H](OC(=O)[C@H](C)N(C)C(=O)CCN(C)C(=O)OCc1ccc(NC(=O)[C@H](CCCNC(N)=O)NC(=O)[C@@H](NC(=O)CCCC(=O)NCCC(=O)N(C)CC(=O)N(C)CC(=O)N(C)CC(=O)N(C)CC(=O)N(C)CC(=O)N(C)CC(=O)N(C)CC(=O)N(C)CC(=O)N(C)CC(=O)N(C)CC(=O)NC(C)C(=O)NC3CSCc4cc5cc(c4)CSCC(NC(=O)C(C)NC(=O)C(Cc4cccc6ccccc46)NC(=O)C(CCC(=O)O)NC(=O)C(CC(N)=O)NC(=O)C(C)NC3=O)C(=O)NC(C)C(=O)NC(CC(=O)O)C(=O)NC(Cc3ccccc3)C(=O)NC(Cc3ccc(O)cc3)C(=O)NC(CC(=O)O)C(=O)NC(C(C)(C)C)C(=O)NC(C(N)=O)CSC5)C(C)C)cc1)[C@]1(C)O[C@H]1[C@H](C)[C@@H]1C[C@@](O)(NC(=O)O1)[C@H](OC)/C=C/C=C(\C)C2` (stereo partly drawn) [Compound I-8] ({X4-PABC-Cit-Val-Glutaryl-βAla}-[Sar][Sar][Sar][Sar][Sar][Sar][Sar][Sar][Sar][Sar][ξA][ξC][ξA][ξN][ξE][ξ1Nal][ξA][ξC][ξA][ξD][ξF][ξY][ξD][ξTle][ξC]-NH2; linker 12-18-25 via TBMB), the “mouse with severe tumor ulceration” value ([1]; 1 mg/kg biw) is reported as 1/3 and the “mouse died at day 14” value ([1]; 3 mg/kg biw) is reported as 1/3.
For `C[C@H](NC(=O)CN(C)C(=O)CN(C)C(=O)CN(C)C(=O)CN(C)C(=O)CN(C)C(=O)CN(C)C(=O)CN(C)C(=O)CN(C)C(=O)CN(C)C(=O)CN(C)C(=O)CCN)C(=O)N[C@H]1CSCc2cc3cc(c2)CSC[C@H](NC(=O)[C@@H](C)NC(=O)[C@H](Cc2cccc4ccccc24)NC(=O)[C@H](CCC(=O)O)NC(=O)[C@H](CC(N)=O)NC(=O)[C@@H](C)NC1=O)C(=O)N[C@@H](CCC(=O)O)C(=O)N[C@@H](CC(=O)O)C(=O)N[C@@H](Cc1ccccc1)C(=O)N[C@@H](Cc1ccc(O)cc1)C(=O)N[C@@H](CC(=O)O)C(=O)N[C@@H](C(C)(C)C)C(=O)N[C@H](C(N)=O)CSC3` [Compound N241] (H-[βAla][Sar][Sar][Sar][Sar][Sar][Sar][Sar][Sar][Sar][Sar]AC[dA]NE[1Nal][dA]CEDFYD[Tle]C-NH2; linker 13-19-26 via TBMB; N-terminus and C-terminus assumed), the “binding (in words)” value (MMP24) was “no binding”, the “binding (in words)” value (MMP16) was “no binding” and the “impact on cell migration or invasion (in words)” value [2] was “no direct impact”. For the same compound, the “binding (in words)” value (catalytic domain of MT1) was “no binding”, the “binding (in words)” value (MMP2 [3]) was “no binding” and the “binding (in words)” value (MMP15) was “no binding”. For the same compound, the “impact on catalytic activity (in words)” value (MMP1 [4]) was “no direct impact”, the “impact on catalytic activity (in words)” value (MT1) was “no direct impact” and the “impact on catalytic activity (in words)” value (MMP9) was “no direct impact”. For the same compound, the “impact on catalytic activity (in words)” value (MMP2 [5]) was “no direct impact”, the “binding (in words)” value (Pro-MMP1) was “no binding” and the “binding (in words)” value (MMP1 [6]) was “no binding”. It also gave a Kd (hemopexin domain of MT1) of about 2 nM.
In the case of `CC(=O)O[C@@]12CO[C@@H]1C[C@H](O)[C@@]1(C)C(=O)[C@H](O)C3=C(C)[C@@H](OC(=O)[C@H](O)[C@@H](NC(=O)OC(C)(C)C)c4ccccc4)C[C@@](O)([C@@H](OC(=O)c4ccccc4)[C@H]21)C3(C)C` [Docetaxel], the “inhibition of tumor growth (in words)” value (LU-01-0486 PDX) is reported as “significant inhibition of tumor growth” and the “effect on body weight (in words)” value [7] is reported as “severe weight loss”.
For `C[C@H](NC(=O)CN(C)C(=O)CN(C)C(=O)CN(C)C(=O)CN(C)C(=O)CN(C)C(=O)CN(C)C(=O)CN(C)C(=O)CN(C)C(=O)CN(C)C(=O)CN(C)C(=O)CCN)C(=O)N[C@H]1CSCc2cc3cc(c2)CSC[C@H](NC(=O)[C@@H](C)NC(=O)[C@H](Cc2cccc4ccccc24)NC(=O)[C@H](CCC(=O)O)NC(=O)[C@H](CC(N)=O)NC(=O)[C@@H](C)NC1=O)C(=O)N[C@@H](CCC(=O)O)C(=O)N[C@@H](CC(=O)O)C(=O)N[C@@H](Cc1ccccc1)C(=O)N[C@@H](Cc1ccc(O)cc1)C(=O)N[C@@H](CC(=O)O)C(=O)N[C@@H](C(C)(C)C)C(=O)N[C@H](C(N)=O)CSC3` [^177Lu-loaded N241, metal not drawn] (H-[βAla][Sar][Sar][Sar][Sar][Sar][Sar][Sar][Sar][Sar][Sar]AC[dA]NE[1Nal][dA]CEDFYD[Tle]C-NH2; linker 13-19-26 via TBMB; N-terminus and C-terminus assumed), the “tumor localization (in words)” value [8] was “rapid tumor localization”.
For “(B-Ala)-Sar10-ACVPCADFPIWYC (SEQ ID NO: 17) (AXXXXXXXXXXACVPCADFPIWYC; not fully specified; N-methyl; non-natural residues) [non-binding peptide]”, the “inhibition in MT1-MMP fluorescent polarization competition” value (MT1-MMP) was “no inhibition”.
